Calls of active or inactive are those of the source. The calls are words filed in the database; no cut-off is given here.
Assays:
[1] = Inhibition of rabbit skeletal muscle myosin 2 ATPase in presence of F-actin after 1 hr; set-up: species or system Oryctolagus cuniculus
Oryctolagus cuniculus = species on record: Oryctolagus cuniculus; assay: Inhibition of rabbit skeletal muscle myosin 2 ATPase in presence of F-actin at 100 uM after 1 hr

IC50 [1] [µM]	inhibition (Oryctolagus cuniculus)	SMILES
0.95	–	Cc1ccc2c(c1)C(=O)[C@]1(O)CCN(c3ccccc3)C1=N2
–	inactive	C=CCOCC1CC2(O)C(=O)c3cc(C)ccc3N=C2N1c1ccccc1 (mixture of isomers)
75	–	Cc1ccc2c(c1)C(=O)[C@]1(O)C[C@H](CO)N(c3ccccc3)C1=N2 (racemic)
–	inactive	Cc1ccc2c(c1)C(=O)[C@]1(O)C[C@@H](CO)N(c3ccccc3)C1=N2 (racemic)

Source: ChEMBL document CHEMBL4118222, “Synthesis of C-ring-modified blebbistatin derivatives and evaluation of their myosin II ATPase inhibitory potency” (Bioorg Med Chem Lett, 2018)
